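Protocol summary: plate cells (96-well), add compound at 5 concentrations, incubate 48 h, interpolate endpoints linearly. GI50: concentration for 50% inhibition of growth.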 Activity calls are given as the source filed them. Cut-off read from the data, not from the text of the source: active = GI50 up to about 1.1 µM and inactive = higher.
What was measured:
Assay in all cases: NCI anticancer screen, dose series, 48 h
SNB-78 = test system: SNB-78
IGROV-1 = test system: IGROV-1
NCI-H226 = test system: NCI-H226
KM-20L2 = test system: KM-20L2
M14 = test system: M14
SK-MEL-28 = test system: SK-MEL-28
NCI-H23 = test system: NCI-H23
SNB-19 = test system: SNB-19
A549 = test system: A549
K562 = test system: K562
MOLT-4 = test system: MOLT-4
HCT-116 = test system: HCT-116
COLO 205 = test system: COLO 205
XF498 = test system: XF498
SN12C = test system: SN12C
DMS-273 = test system: DMS-273
NCI-H522 = test system: NCI-H522
HOP-92 = test system: HOP-92
LXFL 529 = test system: LXFL 529
HT-29 = test system: HT-29
DLD-1 = test system: DLD-1
OVCAR-5 = test system: OVCAR-5
SK-MEL-2 = test system: SK-MEL-2
LOX IMVI = test system: LOX IMVI
SF-539 = test system: SF-539
SW-620 = test system: SW-620
CAKI-1 = test system: CAKI-1
DMS-114 = test system: DMS-114
NCI-H460 = test system: NCI-H460
SNB-75 = test system: SNB-75
SF-268 = test system: SF-268
RXF 393 = test system: RXF 393
TK-10 = test system: TK-10
OVCAR-4 = test system: OVCAR-4
UACC-257 = test system: UACC-257
HCT-15 = test system: HCT-15
ACHN = test system: ACHN
UO-31 = test system: UO-31
UACC-62 = test system: UACC-62
SK-MEL-5 = test system: SK-MEL-5
OVCAR-3 = test system: OVCAR-3
HL-60 = test system: HL-60
EKVX = test system: EKVX
OVCAR-8 = test system: OVCAR-8
SF-295 = test system: SF-295
M19-MEL = test system: M19-MEL
SK-OV-3 = test system: SK-OV-3
786-0 = test system: 786-0
A498 = test system: A498
RPMI-8226 = test system: RPMI-8226
Malme-3M = test system: Malme-3M
KM12 = test system: KM12
HOP-62 = test system: HOP-62
CCRF-CEM = test system: CCRF-CEM
SR = test system: SR
HCC 2998 = test system: HCC 2998

Nc1ccc(C(=O)CC2(O)C(=O)Nc3ccccc32)cc1 (stereo unspecified)
GI50 (SNB-78): > 100 µM (inactive) | GI50 (IGROV-1): > 100 µM (inactive) | GI50 (NCI-H226): > 100 µM (inactive) | GI50 (KM-20L2): > 100 µM (inactive) | GI50 (M14): > 100 µM (inactive) | GI50 (SK-MEL-28): > 100 µM (inactive) | GI50 (NCI-H23): > 100 µM (inactive) | GI50 (SNB-19): > 100 µM (inactive) | GI50 (A549): > 100 µM (inactive) | GI50 (K562): > 100 µM (inactive) | GI50 (MOLT-4): > 100 µM (inactive) | GI50 (HCT-116): > 100 µM (inactive) | GI50 (COLO 205): > 100 µM (inactive) | GI50 (XF498): > 100 µM (inactive) | GI50 (SN12C): > 100 µM (inactive) | GI50 (DMS-273): > 100 µM (inactive) | GI50 (NCI-H522): 29.7 µM (inactive) | GI50 (HOP-92): > 100 µM (inactive) | GI50 (LXFL 529): > 100 µM (inactive) | GI50 (HT-29): > 100 µM (inactive) | GI50 (DLD-1): > 100 µM (inactive) | GI50 (OVCAR-5): > 100 µM (inactive) | GI50 (SK-MEL-2): > 100 µM (inactive) | GI50 (LOX IMVI): > 100 µM (inactive) | GI50 (SF-539): > 100 µM (inactive) | GI50 (SW-620): > 100 µM (inactive) | GI50 (CAKI-1): > 100 µM (inactive) | GI50 (DMS-114): > 100 µM (inactive) | GI50 (NCI-H460): > 100 µM (inactive) | GI50 (SNB-75): 92.9 µM (inactive) | GI50 (SF-268): > 100 µM (inactive) | GI50 (RXF 393): > 100 µM (inactive) | GI50 (TK-10): > 100 µM (inactive) | GI50 (OVCAR-4): > 100 µM (inactive) | GI50 (UACC-257): > 100 µM (inactive) | GI50 (HCT-15): > 100 µM | GI50 (ACHN): > 100 µM (inactive) | GI50 (UO-31): > 100 µM (inactive) | GI50 (UACC-62): > 100 µM (inactive) | GI50 (SK-MEL-5): > 100 µM (inactive) | GI50 (OVCAR-3): > 100 µM (inactive) | GI50 (HL-60): 38.9 µM (inactive) | GI50 (EKVX): > 100 µM (inactive) | GI50 (OVCAR-8): > 100 µM (inactive) | GI50 (SF-295): > 100 µM (inactive) | GI50 (M19-MEL): > 100 µM (inactive) | GI50 (SK-OV-3): > 100 µM (inactive) | GI50 (786-0): > 100 µM (inactive) | GI50 (A498): > 100 µM (inactive) | GI50 (RPMI-8226): > 100 µM (inactive) | GI50 (Malme-3M): > 100 µM (inactive)

O=c1n(CC2CS2)c2ccccc2n1CC1CS1 (stereo unspecified)
GI50 (IGROV-1): 39.2 µM (inactive) | GI50 (KM12): 35.3 µM (inactive) | GI50 (M14): 35.2 µM (inactive) | GI50 (HOP-62): 39.5 µM (inactive) | GI50 (K562): 33.8 µM (inactive) | GI50 (MOLT-4): 18.8 µM (inactive) | GI50 (HCT-116): 25.1 µM (inactive) | GI50 (COLO 205): 62.4 µM (inactive) | GI50 (XF498): > 100 µM (inactive) | GI50 (SN12C): 87.7 µM (inactive) | GI50 (DMS-273): 31.9 µM (inactive) | GI50 (NCI-H522): 30.8 µM (inactive) | GI50 (HOP-92): 42.3 µM (inactive) | GI50 (LXFL 529): 31.2 µM (inactive) | GI50 (SK-MEL-2): 28.9 µM (inactive) | GI50 (LOX IMVI): 30.2 µM (inactive) | GI50 (SW-620): > 10 µM (inactive) | GI50 (CAKI-1): 42.9 µM (inactive) | GI50 (DMS-114): 30.5 µM (inactive) | GI50 (SNB-75): 65.3 µM (inactive) | GI50 (SF-268): 57.7 µM (inactive) | GI50 (OVCAR-4): 41.7 µM (inactive) | GI50 (HCT-15): 42.7 µM | GI50 (ACHN): 45.7 µM (inactive) | GI50 (CCRF-CEM): 21 µM (inactive) | GI50 (SR): 45.5 µM (inactive) | GI50 (UACC-62): 33.3 µM (inactive) | GI50 (OVCAR-3): 43.8 µM (inactive) | GI50 (HL-60): 39.2 µM (inactive) | GI50 (EKVX): > 100 µM (inactive) | GI50 (HCC 2998): 82.8 µM (inactive) | GI50 (M19-MEL): 42.8 µM (inactive) | GI50 (SK-OV-3): > 100 µM (inactive) | GI50 (RPMI-8226): 27.2 µM (inactive) | GI50 (Malme-3M): 18.2 µM (inactive)
